Test results as given in article PMC12102262 (Nature Communications, 2025).

Columns and labels:
[1] = biological target: T1, EML4-ALK (Homo sapiens, UniProt Q9HC35+Q9UM73); test: EML4-ALK degradation in BaF3-EML4-ALK cells by immunoblotting; assay type: cell-based; conditions: 1 μM, same time points
[2] = test system: BaF3-EML4-ALK cells; test: CCK8 cell viability time course, BaF3-EML4-ALK cells; assay type: cell-based; conditions: 1 μM
[3] = biological target: T1, EML4-ALK; test: EML4-ALK protein levels in H3122 xenograft tumors, I.P. dosing, immunoblotting; assay type: in vivo, nude mice; conditions: 10 mg/kg I.P. every other day, 8 doses
[4] = biological target: GID4 and ALK (Homo sapiens, UniProt Q8IVV7+Q9UM73); test: NanoBRET cellular ternary complex formation assay, HEK293T cells; assay type: cell-based; conditions: 6 h, increasing concentrations
Sequence of GID4 and ALK (Q9UM73 1094-1400 limits assumed): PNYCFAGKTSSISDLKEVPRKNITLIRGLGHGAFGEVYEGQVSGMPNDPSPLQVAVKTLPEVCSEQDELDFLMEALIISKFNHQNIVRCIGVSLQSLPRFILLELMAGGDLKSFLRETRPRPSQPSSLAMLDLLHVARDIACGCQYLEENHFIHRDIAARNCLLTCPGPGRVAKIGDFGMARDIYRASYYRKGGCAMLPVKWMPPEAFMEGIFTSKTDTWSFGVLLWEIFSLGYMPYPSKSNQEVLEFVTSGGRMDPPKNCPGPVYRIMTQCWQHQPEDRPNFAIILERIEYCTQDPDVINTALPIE
Sequence of GID4 and ALK (Q8IVV7 whole entry): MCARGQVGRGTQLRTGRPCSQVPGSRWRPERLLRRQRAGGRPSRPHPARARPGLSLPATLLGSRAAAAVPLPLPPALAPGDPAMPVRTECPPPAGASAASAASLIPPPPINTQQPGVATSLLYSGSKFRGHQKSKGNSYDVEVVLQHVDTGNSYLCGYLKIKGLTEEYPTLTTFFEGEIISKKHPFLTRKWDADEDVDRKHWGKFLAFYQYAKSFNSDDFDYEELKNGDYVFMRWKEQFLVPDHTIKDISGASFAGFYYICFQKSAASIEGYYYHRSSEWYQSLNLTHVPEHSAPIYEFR

COc1cc(N2CCC(N3CCN(C)CC3)CC2)ccc1Nc1ncc(Cl)c(Nc2ccccc2P(C)(C)=O)n1 [Brigatinib]
effect on levels of EML4-ALK [1]: had no effect
time post-treatment at which cell proliferation is inhibited [2]: 0.5 h
effect on EML4-ALK protein levels in tumors [3]: failed to reduce
BRET signal between GID4 and ALK [4]: did not induce any BRET signal
